Assay type in all cases: cell-based
The subject of assay [1] is Chrysosporium keratinophilum. Kind of assay: Agar plate disc-diffusion, antifungal inhibition zone. As to the method: (§1) The agar plate disc-diffusion method was applied. […] The discs were then placed onto the surface of agar plates (nutrient agar for bacteria and Sabouraud's dextrose agar for fungi) seeded with the test organism. Each plate contained 15 mL of the agar medium, previously seeded with 0.2 mL of the broth culture of each organism pregrown for 18 hours. The plates were incubated at 37° C. for 48 hours, and 72 hours for fungi. The inhibition zones were measured in mm. Discs impregnated with DMSO were used as a control, and its inhibition zone was subtracted from the tested compound actual inhibition zone.
(Agar diffusion results depend on both activity and mobility in agar.)

In the next assay the test system is Aspergillus flavus. Described as above. As to the method:
as §1

The subject of a further assay is Escherichia coli. Kind of assay: Agar plate disc-diffusion, antibacterial inhibition zone. How it is done:
as §1

In another assay the test system is Bacillus cereus. The assay is described as above. As to the method:
as §1

A further assay concerns Staphylococcus aureus. Described as above. How it is done: as §1
The test system of another assay is Pseudomonas aeruginosa. The assay is described as above. How it is done: as §1
The next assay concerns different microbes. Put plainly: Antimicrobial screening, overall statement. The settings on record: against different microbes (bacteria and fungi of Tables 1 and 2). As to the method:
The agar plate disc-diffusion method was applied. Sterilized filter papers (6 mm in diameter) were wetted with 10 μL of a solution of ethyl 2-(5-(3-fluorophenyl)-4-phenyl-4H-1,2,4-triazol-3-ylthio)acetate (III) to be tested, containing 10 mg/mL in DMSO, and the discs were allowed to air dry. The discs were then placed onto the surface of agar plates (nutrient agar for bacteria and Sabouraud's dextrose agar for fungi) seeded with the test organism. Each plate contained 15 mL of the agar medium, previously seeded with 0.2 mL of the broth culture of each organism pregrown for 18 hours. The plates were incubated at 37° C. for 48 hours, and 72 hours for fungi. The inhibition zones were measured in mm. Discs impregnated with DMSO were used as a control, and its inhibition zone was subtracted from the tested compound actual inhibition zone.

[2] abbreviates: A = concentration of comp. = 10,000 μL.
Where [3] appears, read: B = concentration of comp. = 30,000 μL.
The mark [4] stands for this setting: C = concentration of comp. = 50,000 μL.

In the case of `O=C(O)c1cn(C2CC2)c2cc(N3CCNCC3)c(F)cc2c1=O` [Cip., ciprofloxacin, reference compound], the inhibition zone was 29 mm in assay [1] (setting [2]); 30 mm in assay [1] (setting [3]); 53 mm in assay [1] (setting [4]); 29 mm in the assay on Aspergillus flavus (setting [2]); 30 mm with Aspergillus flavus (setting [3]); 42 mm with Aspergillus flavus (setting [4]). Further, the inhibition zone was found to be 30 mm with Escherichia coli (setting [2]); 39 mm with Escherichia coli (setting [3]); 60 mm in the assay with Escherichia coli (setting [4]); 29 mm with Bacillus cereus (setting [2]); 30 mm in the assay on Bacillus cereus (setting [3]); 42 mm in the assay with Bacillus cereus (setting [4]). The inhibition zone was found to be 43 mm in the assay with Staphylococcus aureus (setting [2]); 44 mm in the assay with Staphylococcus aureus (setting [3]); 53 mm in the assay on Staphylococcus aureus (setting [4]); 29 mm with Pseudomonas aeruginosa (setting [2]); 30 mm in the assay on Pseudomonas aeruginosa (setting [3]); 53 mm in the assay with Pseudomonas aeruginosa (setting [4]).
Take `CCOC(=O)CSc1nnc(-c2cccc(F)c2)n1-c1ccccc1` [III, ethyl 2-(5-(3-fluorophenyl)-4-phenyl-4H-1,2,4-triazol-3-ylthio)acetate]: the “antimicrobial activity (in words)” value in the assay on different microbes was “excellent antimicrobials activities”. The inhibition zone was 25 mm in assay [1] (setting [2]); 29 mm in assay [1] (setting [3]); 47 mm in assay [1] (setting [4]); 20 mm with Aspergillus flavus (setting [2]); 23 mm in the assay on Aspergillus flavus (setting [3]); 29 mm with Aspergillus flavus (setting [4]). The inhibition zone in the assay with Escherichia coli (setting [2]) amounted to 26 mm; with Escherichia coli (setting [3]) it was 34 mm; in the assay with Escherichia coli (setting [4]), 50 mm; in the assay on Bacillus cereus (setting [2]), 24 mm; with Bacillus cereus (setting [3]) it was 27 mm; in the assay with Bacillus cereus (setting [4]), 39 mm. Also, the inhibition zone amounted to 18 mm with Staphylococcus aureus (setting [2]); 21 mm in the assay on Staphylococcus aureus (setting [3]); 30 mm with Staphylococcus aureus (setting [4]); 25 mm in the assay with Pseudomonas aeruginosa (setting [2]); 26 mm in the assay on Pseudomonas aeruginosa (setting [3]); 44 mm in the assay with Pseudomonas aeruginosa (setting [4]).

Values taken from patent publication US11939305B1, “Ethyl 2-(5-(3-fluorophenyl)-4-phenyl-4H-1,2,4-triazol-3-ylthio)acetate as an antimicrobial compound” (KING FAISAL UNIVERSITY, priority 2023, dated 2024).
